In ChEMBL document CHEMBL1687848, “In vitro effect of qnrA1, qnrB1, and qnrS1 genes on fluoroquinolone activity against isogenic Escherichia coli isolates with mutations in gyrA and parC” (2011):
Values after ≈ are worked out from the molar mass of the structure shown.

Assays:
Assay type in all cases: functional
[1] = test system: Escherichia coli; test: Antibacterial activity against Escherichia coli ATCC 25922 expressing qnrB gene and pBK-QnrB1 assessed as earliest time required to resistant colonies visible one step below mutant prevention concentration
[2] = test system: Escherichia coli; test: Antibacterial activity against Escherichia coli ATCC 25922 by broth microdilution method
[3] = test system: Escherichia coli; test: Antibacterial activity against Escherichia coli ATCC 25922 expressing qnrA gene and pBK-QnrA1 by broth microdilution method
[4] = test system: Escherichia coli; test: Antibacterial activity against Escherichia coli ATCC 25922 harboring GyrA S83L mutant assessed as earliest time required to resistant colonies visible one step below mutant prevention concentration
[5] = test system: Escherichia coli; test: Antibacterial activity against Escherichia coli ATCC 25922 harboring ParC S80R mutant by broth microdilution method
[6] = test system: Escherichia coli; test: Antibacterial activity against Escherichia coli ATCC 25922 expressing qnrS gene and pBK-QnrS1 assessed as mutant prevention concentration
[7] = test system: Escherichia coli; test: Antibacterial activity against qnrA gene expressing Escherichia coli ATCC 25922 harboring GyrA S83L mutant and pBK-QnrA1 assessed as mutant prevention concentration
[8] = test system: Escherichia coli; test: Antibacterial activity against Escherichia coli ATCC 25922 expressing qnrA gene and pBK-QnrA1 assessed as mutant prevention concentration
[9] = test system: Escherichia coli; test: Antibacterial activity against Escherichia coli ATCC 25922 expressing qnrB gene and pBK-QnrB1 assessed as mutant prevention concentration
[10] = test system: Escherichia coli; test: Antibacterial activity against Escherichia coli ATCC 25922 harboring GyrA S83L mutant assessed as mutant prevention concentration
[11] = test system: Escherichia coli; test: Antibacterial activity against Escherichia coli ATCC 25922 expressing qnrS gene and pBK-QnrS1 assessed as earliest time required to resistant colonies visible one step below mutant prevention concentration
[12] = test system: Escherichia coli; test: Antibacterial activity against Escherichia coli ATCC 25922 expressing qnrA gene and pBK-QnrA1 assessed as earliest time required to resistant colonies visible one step below mutant prevention concentration
[13] = test system: Escherichia coli; test: Antibacterial activity against qnrS gene expressing Escherichia coli ATCC 25922 harboring ParC S80R mutant, ParC S80R mutant and pBK-QnrS1 by broth microdilution method
[14] = test system: Escherichia coli; test: Antibacterial activity against qnrB gene expressing Escherichia coli ATCC 25922 harboring ParC S80R mutant and pBK-QnrB1 by broth microdilution method
[15] = test system: Escherichia coli; test: Antibacterial activity against qnrS gene expressing Escherichia coli ATCC 25922 harboring ParC S80R mutant and pBK-QnrS1 by broth microdilution method
[16] = test system: Escherichia coli; test: Antibacterial activity against qnrA gene expressing Escherichia coli ATCC 25922 harboring GyrA S83L mutant and pBK-QnrA1 assessed as earliest time required to resistant colonies visible one step below mutant prevention concentration
[17] = test system: Escherichia coli; test: Antibacterial activity against qnrB gene expressing Escherichia coli ATCC 25922 harboring ParC S80R mutant, ParC S80R mutant and pBK-QnrB1 by broth microdilution method
[18] = test system: Escherichia coli; test: Antibacterial activity against Escherichia coli ATCC 25922 expressing qnrS gene and pBK-QnrS1 by broth microdilution method
[19] = test system: Escherichia coli; test: Antibacterial activity against qnrS gene expressing Escherichia coli ATCC 25922 harboring GyrA S83L mutant and pBK-QnrS1 assessed as mutant prevention concentration
[20] = test system: Escherichia coli; test: Antibacterial activity against qnrS gene expressing Escherichia coli ATCC 25922 harboring GyrA S83L mutant and pBK-QnrS1 by broth microdilution method
[21] = test system: Escherichia coli; test: Antibacterial activity against Escherichia coli ATCC 25922 harboring GyrA S83L mutant by broth microdilution method
[22] = test system: Escherichia coli; test: Antibacterial activity against Escherichia coli ATCC 25922 assessed as earliest time required to resistant colonies visible one step below mutant prevention concentration
[23] = test system: Escherichia coli; test: Antibacterial activity against qnrA gene expressing Escherichia coli ATCC 25922 harboring ParC S80R mutant, ParC S80R mutant and pBK-QnrA1 by broth microdilution method
[24] = test system: Escherichia coli; test: Antibacterial activity against qnrB gene expressing Escherichia coli ATCC 25922 harboring GyrA S83L mutant and pBK-QnrB1 assessed as mutant prevention concentration
[25] = test system: Escherichia coli; test: Antibacterial activity against Escherichia coli ATCC 25922 assessed as mutant prevention concentration
[26] = test system: Escherichia coli; test: Antibacterial activity against qnrB gene expressing Escherichia coli ATCC 25922 harboring GyrA S83L mutant and pBK-QnrB1 by broth microdilution method
[27] = test system: Escherichia coli; test: Antibacterial activity against qnrA gene expressing Escherichia coli ATCC 25922 harboring GyrA S83L mutant and pBK-QnrA1 by broth microdilution method
[28] = test system: Escherichia coli; test: Antibacterial activity against Escherichia coli ATCC 25922 expressing qnrB gene and pBK-QnrB1 by broth microdilution method
[29] = test system: Escherichia coli; test: Antibacterial activity against qnrA gene expressing Escherichia coli ATCC 25922 harboring ParC S80R mutant and pBK-QnrA1 by broth microdilution method
[30] = test system: Escherichia coli; test: Antibacterial activity against qnrB gene expressing Escherichia coli ATCC 25922 harboring GyrA S83L mutant and pBK-QnrB1 assessed as earliest time required to resistant colonies visible one step below mutant prevention concentration
[31] = test system: Escherichia coli; test: Antibacterial activity against Escherichia coli ATCC 25922 harboring GyrA S83L mutant and ParC S80R mutant by broth microdilution method
[32] = test system: Escherichia coli; test: Antibacterial activity against qnrS gene expressing Escherichia coli ATCC 25922 harboring GyrA S83L mutant and pBK-QnrS1 assessed as earliest time required to resistant colonies visible one step below mutant prevention concentration

SMILES: O=C(O)c1cn(C2CC2)c2cc(N3CCNCC3)c(F)cc2c1=O [CIPROFLOXACIN]
- Time [1]: 72 h
- MBC [2]: 0.015 µg/mL (≈ 0.0453 µM)
- MBC [3]: 0.125 µg/mL (≈ 0.377 µM)
- Time [4]: 24 h
- MBC [5]: 0.004 µg/mL (≈ 0.0121 µM)
- Activity [6]: 4 µg/mL
- Activity [7]: 16 µg/mL
- Activity [8]: 8 µg/mL
- Activity [9]: 2 µg/mL
- Activity [10]: 4 µg/mL
- Time [11]: 24 h
- Time [12]: 48 h
- MBC [13]: 4 µg/mL (≈ 12.1 µM)
- MBC [14]: 0.25 µg/mL (≈ 0.754 µM)
- MBC [15]: 0.25 µg/mL (≈ 0.754 µM)
- Time [16]: 24 h
- MBC [17]: 2 µg/mL (≈ 6.04 µM)
- MBC [18]: 0.25 µg/mL (≈ 0.754 µM)
- Activity [19]: 8 µg/mL
- MBC [20]: 1 µg/mL (≈ 3.02 µM)
- MBC [21]: 0.125 µg/mL (≈ 0.377 µM)
- Time [22]: 48 h
- MBC [23]: 4 µg/mL (≈ 12.1 µM)
- Activity [24]: 8 µg/mL
- Activity [25]: 1 µg/mL
- MBC [26]: 0.5 µg/mL (≈ 1.51 µM)
- MBC [27]: 0.5 µg/mL (≈ 1.51 µM)
- MBC [28]: 0.125 µg/mL (≈ 0.377 µM)
- MBC [29]: 0.25 µg/mL (≈ 0.754 µM)
- Time [30]: 24 h
- MBC [31]: 2 µg/mL (≈ 6.04 µM)
- Time [32]: 24 h
